Like-named read-outs stand apart in the source and are kept apart here.
Key:
human granulocytes = test: Oxidative burst inhibition assay on granulocytes (luminol); format: cell-based; settings: Homo sapiens; for inhibition at 12.5 µM: compound 12.5 μM; for inhibition at 50 µM: compound 50 μM
Method: (§1) Granulocytes were obtained from heparinized whole blood using density gradient centrifugation. Erythrocytes were sedimented on 3% dextran T-500 (Amersham Pharmacia Biotech AB, Uppsala, Sweden). Leukocytes were centrifuged on Ficoll (Amersham Pharmacia Biotech AB, Uppsala, Sweden) for 35 min at 600 g at 20° C. The pellet of granulocytes was cleared from remaining erythrocytes by a brief hypotonic lysis.
The effect of compounds on oxidative burst was investigated in vitro with oxidative burst assay in human granulocytes, isolated as described above. Assay was done in 96 well plate. Blood was obtained from healthy volunteers (Transfusion Center, Croatia) and human granulocytes were isolated by dextran sedimentation and ficoll extraction method, as described above. In each well 50000 isolated granulocytes were suspended in 100 μL of DMEM. Final concentrations of the tested compounds were 50 and 12.5 μM. Than, 50 μL of luminol (c=0.25 mg/mL) was added. Luminol as a detector of oxidative burst react with superoxide and light is produced as one of the reaction products. Subsequently, 50 μL of stimuli, phorbol-12-myristate acetate (PMA) (c=33 ng/mL) or Zymosan (c=120 μg/mL), were added.

IL-2 = test: Inhibition of IL-2 production by stimulated human PBMC in vitro; format: cell-based; settings: PHA stimulated, 3 days
Method: (§2) Heparinized peripheral blood was obtained from healthy donors, and peripheral blood mononuclear cells (PBMC) were isolated by Histopaque 1077 (Sigma, USA) density centrifugation on 400 g for 30 minutes. Collected PBMC were centrifuged in plasma on 400 g/10 min, resuspended and washed in RPMI 1640 (Institute of Immunology, Croatia) by centrifugation.
(§3) Peripheral blood mononuclear cells (PBMC), isolated as described above, were seeded in a 48-well plate at a concentration of 1×10^6 cells per well in the RPMI culture medium described above. Cells were stimulated with 10 μg/mL phytohaemagglutinin (PHA) (Sigma, USA) and incubated at 37° C., 5% CO2 in 90% humidity with tested compounds (10 and 50 μM) for 3 days. Cytokine concentrations were determined in supernatants by sandwich ELISA, using capture and detection antibodies (R&D, USA) according to the manufacturer's recommendations.
(§4) Inhibition (as percentage) was calculated using the following formula: % inhibition=(1−concentration of cytokines in sample/concentration of cytokines in positive control)×100. The positive control refers to stimulated samples, not treated with substances.

IL-5 = test: Inhibition of IL-5 production by stimulated human PBMC in vitro; format: cell-based; settings: PHA stimulated, 3 days
Method: as §2, §3, §4

granulocytes = test: Inhibition of degranulation of granulocytes (elastase release); format: cell-based, human; settings: for inhibition at 50 µM: Homo sapiens, read-out: Percentage of inhibition of degranulation of granulocytes
Method: as §1
1×10^6 granulocytes, isolated as described above, were resuspended in RPMI-1640 medium (Institute of Immunology, Croatia), and were incubated with 10 or 50 μM of test compound together with cytochalasine B (5 μg/mL) for 2 h at 37° C. Degranulation then was induced by the addition of 0.1 μM fMLP (Sigma, USA) or 0.5 μM A23187 (Calbiochem, USA). The activity of free neutrophil elastase was determined with a chromogenic substrate specific for human neutrophil elastase, such as n-methoxysuccinyl-1-alanyl-1-alanyl-1-prolyl-lvalyl-p-niytoanlide (Sigma Chemical Company, St Louis, Mo., USA) Elastase activity, as a marker of primary granules, was assessed in supernatant using a spectrophotometer at an absorbance of 405 nm. Results are expressed as the percent of inhibition of degranulation in unstimulated cells, and in stimulated cells treated with fMLP or A23187.

Male BALB/cJ mice = test: Lung neutrophilia induced by bacterial lipopolysaccharide in male BALB/cJ mice; format: in vivo; settings: single 5 mg dose i.p., intranasal LPS, BALF about 24 hours after LPS, compared to positive control
Method: Male BALB/cJ mice (Iffa Credo, France), with average weight ˜30 g were randomly grouped (n=7 in testing group, 8 in positive control, 7 in negative control). Mice were administered intraperitoneally (i.p.) a single 5 mg dose of test compound. Two hours after administration, 2 μg of bacterial lipopolysaccharide (LPS), dissolved in PBS in a volume of 60 μL, was intranasally administered to all experimental groups except the negative control group, which received the same volume (60 μL) of vehicle PBS. Animals were sacrificed approximately 24 hours after application of LPS in order to obtain bronchoalveolar lavage fluid (BALF), which was used to determine concentrations of IL-6 and TNF-α, absolute number of cells, and the percentage of neutophils in BALF. Results are expressed as percentage of decrease of total cell number, relative number of neutrophils, and TNF-α and IL-6 concentration in BALF of treated animals compared to positive control (LPS stimulated, but untreated animals).
Besides accumulation of inflammatory cells in BALF, the extent and anatomic site of pulmonary inflammation induced by LPS was assessed 24 hours after PBS or LPS exposure. Accumulation of granulocytes and mononuclear cells in peribronchial (PB) and perivascular (PV) lung tissue areas and in alveolar spaces was monitored following sacrifice of the animals.

A549 = test: MTT cytotoxicity assay on A549 cell line; format: cell-based
Method: (§5) To determine whether the anti-inflammatory activity of the test compounds was due to observed inhibition of cytokine production and inhibition of proliferation in vitro, and was not a consequence of cellular cytotoxicity, measurement of succinate dehydrogenase activity in living cells was performed. Cells were cultured for 24 h in RPMI medium as described above at 37° C. in the presence of the test compounds at concentrations of 50 μM and 12.5 μM. MTT [3-(4,5-dimethylthiazole-2-yl)-2,5-diphenyl tetrazolium bromide] (Promega, USA), a detection reagent, was then added and the cultures were incubated for 0.5-2 h. The amount of MTT-Formazan produced was determined using a spectrophotometer at 490 nm (Mosmann, J. Imnunol. Methods, 1983, 65: 55-63). Percentage of viable cells was calculated using the following formula:
(§6) % viable cells=([…]OD490 treated cells/OD490 nontreated cells)×100

Hep G2 = test: MTT cytotoxicity assay on Hep G2 cell line; format: cell-based
Method: as §5, §6

[1] = PMA stimulated granulocytes, read-out: % inhibition of Oxidative burst PMA
[2] = Zymosan stimulated granulocytes, read-out: % inhibition of Oxidative burst Zymosan
[3] = A23187 0.5 μM stimulated, compound 10 μM
[4] = A23187 0.5 μM stimulated, compound 50 μM
[5] = fMLP 0.1 μM stimulated, compound 10 μM
[6] = fMLP 0.1 μM stimulated, compound 50 μM

SMILES | inhibition at 12.5 µM (human granulocytes; [1]) | inhibition at 50 µM (human granulocytes; [1]) | inhibition at 12.5 µM (human granulocytes; [2]) | inhibition at 50 µM (human granulocytes; [2]) | Percentage of inhibition of IL-2 production (IL-2; compound 10 μM) | Percentage of inhibition of IL-2 production (IL-2; compound 50 μM) | Percentage of inhibition of IL-5 production (IL-5; compound 10 μM) | Percentage of inhibition of IL-5 production (IL-5; compound 50 μM) | Percentage of inhibition of degranulation of granulocytes (granulocytes; [3]) | Percentage of inhibition of degranulation of granulocytes (granulocytes; [4]) | Percentage of inhibition of degranulation of granulocytes (granulocytes; [5]) | Percentage of inhibition of degranulation of granulocytes (granulocytes; [6]) | percentage of decrease of IL-6 concentration in BALF (Male BALB/cJ mice) | percentage of decrease of TNF-α concentration in BALF (Male BALB/cJ mice) | percentage of decrease of relative number of neutrophils (% of neutrophils) in BALF (Male BALB/cJ mice) | percentage of decrease of total cell number in BALF (Male BALB/cJ mice) | Percentage of viable cells after treatment (A549; human, 24 h, 12.5 μM) | Percentage of viable cells after treatment (A549; human, 24 h, 50 μM) | Percentage of viable cells after treatment (Hep G2; human, 24 h, 12.5 μM) | Percentage of viable cells after treatment (Hep G2; human, 24 h, 50 μM) | further results
CC[C@H]1OC(=O)[C@H](C)[C@@H](O[C@H]2C[C@@](C)(OC)[C@@H](O)[C@H](C)O2)[C@H](C)[C@@H](O[C@@H]2O[C@H](C)C[C@H](N(C)C)[C@H]2O)[C@](C)(O)C[C@@H](C)CN(C(=S)Nc2cccc(C(F)(F)F)c2)[C@H](C)[C@@H](O)[C@]1(C)O [Compound 4] | 16% | 85% | 0% | 100% |  |  |  |  |  |  |  |  |  |  |  |  |  |  |  |  | 
CCC1OC(=O)C(C)C(O)C(C)C(OC2OC(C)CC(N(C)C)C2O)C(C)(O)CC(C)CN(C(=S)NCc2ccccc2)C(C)C(O)C1(C)O (centres unmarked) [Compound 1] |  |  |  |  | 61% | 95% | 14% | 73% | 20% | 27% | 37% | 72% | 28 | 41 | 9 | 50 |  |  |  |  | 
CC[C@H]1OC(=O)[C@H](C)[C@@H](O[C@H]2C[C@@](C)(OC)[C@@H](O)[C@H](C)O2)[C@H](C)[C@@H](O[C@@H]2O[C@H](C)C[C@H](N(C)C)[C@H]2O)[C@](C)(O)C[C@@H](C)CN(C(=S)Nc2ccccc2F)[C@H](C)[C@@H](O)[C@]1(C)O [Compound 5] |  |  |  |  |  |  |  |  |  |  |  |  |  |  |  |  | 100% | 100% | 100% | 100% | 
CCC1OC(=O)C(C)C(OC2CC(C)(OC)C(O)C(C)O2)C(C)C(OC2OC(C)CC(N(C)C)C2O)C(C)(O)CC(C)CN(C(=S)Nc2cccc(F)c2)C(C)C(O)C1(C)O (centres unmarked) [Compound 3] |  |  |  |  | 86% | 98% | 80% | 78% | 2% | 75% | 25% | 33% |  |  |  |  |  |  |  |  | Percentage of viable cells after treatment (A549; A549, 24 h, compound 12.5 μM): 100%; Percentage of viable cells after treatment (A549; A549, 24 h, compound 50 μM): >90%; Percentage of viable cells after treatment (Hep G2; Hep G2, 24 h, compound 12.5 μM): 100%; Percentage of viable cells after treatment (Hep G2; Hep G2, 24 h, compound 50 μM): >85%
CC[C@H]1OC(=O)[C@H](C)[C@@H](O[C@H]2C[C@@](C)(OC)[C@@H](O)[C@H](C)O2)[C@H](C)[C@@H](O[C@@H]2O[C@H](C)C[C@H](N(C)C)[C@H]2O)[C@](C)(OC)C[C@@H](C)C(=O)[C@H](C)[C@@H](O)[C@]1(C)O [Clarithromycin, clarithromycin, reference compound] | 0% | 3% | 4% | 19% |  |  |  |  |  |  |  |  | 60 | 78 | 36 | 77 | 100% | 100% | 100% | 100% | inhibition at 10 µM (IL-2; Homo sapiens, 72 h, compound 10 μM, read-out: Percentage of inhibition of IL-2 production): 0%; inhibition at 50 µM (IL-2; Homo sapiens, 72 h, compound 50 μM, read-out: Percentage of inhibition of IL-2 production): 3%; inhibition at 10 µM (IL-5; Homo sapiens, 72 h, compound 10 μM, read-out: Percentage of inhibition of IL-5 production): 13%; inhibition at 50 µM (IL-5; Homo sapiens, 72 h, compound 50 μM, read-out: Percentage of inhibition of IL-5 production): 47%
CC[C@H]1OC(=O)[C@H](C)[C@@H](O[C@H]2C[C@@](C)(OC)[C@@H](O)[C@H](C)O2)[C@H](C)[C@@H](O[C@@H]2O[C@H](C)C[C@H](N(C)C)[C@H]2O)[C@](C)(O)C[C@@H](C)CN(C)[C@H](C)[C@@H](O)[C@]1(C)O [Azithromycin, azithromycin, reference compound] | 0% | 20% | 0% | 16% |  |  |  |  |  |  |  |  | 72 | 66 | 37 | 77 | 100% | 100% | 100% | >95% | inhibition at 50 µM (granulocytes; [4]): 16%; inhibition at 50 µM (granulocytes; [6]): 36%
